Marks after values point to notes of the source that are not given here.
Experiments:
[1] = system: HCT-116 human colon cancer xenografts; test: Tumor growth inhibition of HCT-116 human colon cancer xenografts in nude mice; format: in vivo, Balb/c nude mice; details: for Relative tumor proliferation rate (T/C %) / Relative tumor volume (RTV) / Tumor growth inhibition rate (TGI %) / Tumor volume of HCT-116 human colon cancer xenografts: single IP injection (QD×1), D1 and D2 400 mg/kg, D3 350 mg/kg, D4 300 mg/kg; for Tumor volume of HCT-116 human colon cancer xenografts: Mean±SEM
Method: 2. Preparation of the test substance was performed by dissolving the test substance using the following solvents:
3. Animal experiments were performed. […] Animals were numbered using their tail number.
4.1 Tumor cells were human HCT-116 colon cancer cells purchased from the Institute of Cell Biology, Chinese Academy of Sciences (Beijing, China). F-12 medium (containing 10% FBS) was used to culture cells in a carbon dioxide incubator at about 37° C., saturated humidity, under 5% CO2 and 95% air. Before inoculation, cells in logarithmic growth phase were collected. After digested by 0.25% trypsin, the cells were washed with PBS once. The cells were resuspended with serum-free medium and counted. Serum-free medium were used for cell resuspension, until the cell concentration was adjusted to about 3×10^7 cell/mL.
4.2 Animal inoculation and grouping were performed.
The diameters (D) of the tumor nodules were measured three times a week with a circle sizer ruler. In addition, the following formula was applied to calculate the volume of the tumor nodules (V): V=[…](D/2)^3 generally for a spherical shape. Evaluation indexes of antitumor activity were tumor growth inhibition rate TGI (%) and relative tumor proliferation rate T/C (%).
The calculation formula of TGI was: TGI (%)=(Vcontrol−VTreatment)/Vcontrol)×100%. The relative tumor volume (RTV) was calculated by: RTV=Vt/V0, where V0 is the tumor volume at the time of group administration, and Vt is the tumor volume at the time of measurement.
The mice were weighed 3 times every week.
4.5 Data and statistical analysis were provided.

[2] = Body weight / toxicity of a single intraperitoneal injection in HCT-116 colon tumor-bearing nude mice; details: D3 350 mg/kg, D4 300 mg/kg; for Average rate of weight change of the animals / Average weight of the animals: single IP injection (QD×1), D1 and D2 400 mg/kg; for Average weight of the animals: Mean±SEM
Method: Corresponding test substance was weighed and put into a 5 mL glass tube. The test substance was dissolved in ethanol under the stirring by a 5 mm magnetic stirrer. After a complete dissolution, Cremophor EL was added with continuous stirring. Immediately prior to the user of the test substance, the labeled amount of physiological saline was added and stirred.
Animal experiments were performed. The animals were female Balb/c nude mice at specific pathogen free (SPF) level and were supplied from Shanghai Sippr/BK Lab Animal Ltd. (Shanghai, China). […] These animals were at the age of about 7 weeks to about 9 weeks at the beginning of the experiments and had the weight of about 18 grams to about 22 grams at the beginning of the experiment. The animals had acclimatization duration of about 5 days to about 7 days. Animals were numbered using their tail number. The animal room was maintained at about 23±2° C., 40%-70% humidity, with alternating light and dark every 12 hours.
4.2 Animal inoculation and grouping were performed. Under aseptic conditions, each nude mice was injected with 0.1 mL cell suspension into the right hind leg subcutaneously (3×10^6 cell/mouse). When the size of the tumor grew to have a volume of about 60-150 mm^3, nude mice with a similar tumor size and a desirable shape (e.g., with substantially same shape such as a substantially spherical shape, without having irregular shapes or multiple tumors grouped together) were selected and grouped. In the experiment, there were six mice in each group.
The mice in control group were injected with a mixed solution including ethanol, Cremophor EL and normal saline at a ratio of 5:5:90.
4.4 Clinical symptoms were provided. All clinical symptoms of each animal were recorded at the beginning of the experiments and during the experiments. The observation was performed at the same time every day.
After administration of the test substance, when the weight reduction was >20%, when the animal was dying, or when the tumor volume exceeds about 2800 mm^3, the animal were euthanized by applying CO2. The tumor was separated and weighed, an autopsy was performed, and visual inspection was conducted and recorded on whether there were pathological changes in the organs.

[3] = D1 400 mg/kg Day 7, D2 400 mg/kg Day 9, D3 350 mg/kg Day 11, D4 300 mg/kg Day 11, single IP

## CCCCOC(=O)Nc1ccn([C@H]2O[C@@H](COC(=O)CCC(=O)OC[C@H]3O[C@@H](n4ccc(NC(=O)OCCCC)nc4=O)C(F)(F)[C@@H]3O)[C@H](O)C2(F)F)c(=O)n1 (stereo in doubt) [Compound D2, 1,5-di-[4-N-(n-butoxycarbonyl)-2′-deoxy-2′,2′-difluoro-cytidine]glutarate]
[1]; [3]
  Relative tumor proliferation rate, minimum: 14.41%
  Tumor inhibition rate, maximum: 94.79%
[1]; Day 0
  Relative tumor proliferation rate (T/C %): 0.00%
  Relative tumor volume (RTV): 1.00
  Tumor growth inhibition rate (TGI %): 0.00%
  Tumor volume of HCT-116 human colon cancer xenografts: 53.09 ± 9.33** mm^3
[1]; Day 1
  Relative tumor proliferation rate (T/C %): 50.15%
  Relative tumor volume (RTV): 0.89 ± 0.10
  Tumor growth inhibition rate (TGI %): 71.87%
  Tumor volume of HCT-116 human colon cancer xenografts: 50.78 ± 14.16** mm^3
[1]; Day 2
  Relative tumor proliferation rate (T/C %): 40.78%
  Relative tumor volume (RTV): 0.95 ± 0.15
  Tumor growth inhibition rate (TGI %): 74.81%
  Tumor volume of HCT-116 human colon cancer xenografts: 55.89 ± 18.82** mm^3
[1]; Day 4
  Relative tumor proliferation rate (T/C %): 25.19%
  Relative tumor volume (RTV): 0.73 ± 0.19
  Tumor growth inhibition rate (TGI %): 84.53%
  Tumor volume of HCT-116 human colon cancer xenografts: 45.96 ± 20.25** mm^3
[1]; Day 7
  Relative tumor proliferation rate (T/C %): 16.63%
  Relative tumor volume (RTV): 0.52 ± 0.23
  Tumor growth inhibition rate (TGI %): 91.71%
  Tumor volume of HCT-116 human colon cancer xenografts: 35.87 ± 21.79** mm^3
[1]; Day 9
  Relative tumor proliferation rate (T/C %): 14.41%
  Relative tumor volume (RTV): 0.46 ± 0.17
  Tumor growth inhibition rate (TGI %): 94.79%
  Tumor volume of HCT-116 human colon cancer xenografts: 30.75 ± 16.74** mm^3
[1]; Day 11
  Relative tumor proliferation rate (T/C %): 16.77%
  Relative tumor volume (RTV): 0.87 ± 0.35
  Tumor growth inhibition rate (TGI %): 94.13%
  Tumor volume of HCT-116 human colon cancer xenografts: 57.29 ± 33.0** mm^3
[1]; Day 14
  Relative tumor proliferation rate (T/C %): 18.33%
  Relative tumor volume (RTV): 1.80 ± 0.69
  Tumor growth inhibition rate (TGI %): 91.88%
  Tumor volume of HCT-116 human colon cancer xenografts: 116.87 ± 66.85** mm^3
[1]; Day 16
  Relative tumor proliferation rate (T/C %): 21.64%
  Relative tumor volume (RTV): 2.66 ± 0.88
  Tumor growth inhibition rate (TGI %): 90.63%
  Tumor volume of HCT-116 human colon cancer xenografts: 169.73 ± 88.15** mm^3
[1]; Day 18
  Relative tumor proliferation rate (T/C %): 21.99%
  Relative tumor volume (RTV): 4.20 ± 1.02
  Tumor growth inhibition rate (TGI %): 86.88%
  Tumor volume of HCT-116 human colon cancer xenografts: 262.10 ± 111.14** mm^3
[1]; Day 21
  Relative tumor proliferation rate (T/C %): 34.57%
  Relative tumor volume (RTV): 8.09 ± 1.52
  Tumor growth inhibition rate (TGI %): 79.99%
  Tumor volume of HCT-116 human colon cancer xenografts: 489.13 ± 174.91 mm^3
[1]; Day 23
  Relative tumor proliferation rate (T/C %): 42.87%
  Relative tumor volume (RTV): 8.48 ± 1.37
  Tumor growth inhibition rate (TGI %): 78.74%
  Tumor volume of HCT-116 human colon cancer xenografts: 501.98 ± 170.25 mm^3
[1]; Day 25
  Relative tumor proliferation rate (T/C %): 44.51%
  Relative tumor volume (RTV): 9.62 ± 1.48
  Tumor growth inhibition rate (TGI %): 77.96%
  Tumor volume of HCT-116 human colon cancer xenografts: 569.05 ± 189.18 mm^3
[1]; Day 28
  Relative tumor proliferation rate (T/C %): 56.94%
  Relative tumor volume (RTV): 12.03 ± 1.50
  Tumor growth inhibition rate (TGI %): 74.35%
  Tumor volume of HCT-116 human colon cancer xenografts: 689.78 ± 203.52 mm^3
[1]; Day 30
  Relative tumor proliferation rate (T/C %): 63.87%
  Relative tumor volume (RTV): 15.85 ± 1.92
  Tumor growth inhibition rate (TGI %): 67.91%
  Tumor volume of HCT-116 human colon cancer xenografts: 900.52 ± 250.44 mm^3
[1]; single IP injection, 300-400 mg/kg
  Inhibition of growth of HCT-116 human colon cancer xenografts (in words): higher tumor inhibition rates
[2]; Day 0
  Average rate of weight change of the animals: 0.00%
  Average weight of the animals: 19.87 ± 0.25 g
[2]; Day 1
  Average rate of weight change of the animals: −0.08 ± 0.74%
  Average weight of the animals: 19.85 ± 0.28 g
[2]; Day 2
  Average rate of weight change of the animals: −8.54 ± 1.31 %
  Average weight of the animals: 18.17 ± 0.31 g
[2]; Day 4
  Average rate of weight change of the animals: −10.63 ± 2.13 %
  Average weight of the animals: 17.75 ± 0.44 g
[2]; Day 7
  Average rate of weight change of the animals: −6.98 ± 1.43%
  Average weight of the animals: 18.48 ± 0.40 g
[2]; Day 9
  Average rate of weight change of the animals: 0.21 ± 1.42%
  Average weight of the animals: 19.92 ± 0.45 g
[2]; Day 11
  Average rate of weight change of the animals: 2.72 ± 1.85%
  Average weight of the animals: 20.42 ± 0.53 g
[2]; Day 14
  Average rate of weight change of the animals: 4.87 ± 2.08 %
  Average weight of the animals: 20.85 ± 0.60 g
[2]; Day 16
  Average rate of weight change of the animals: 6.32 ± 1.65 %
  Average weight of the animals: 21.13 ± 0.51 g
[2]; Day 18
  Average rate of weight change of the animals: 8.83 ± 1.43 %
  Average weight of the animals: 21.63 ± 0.51 g
[2]; Day 21
  Average rate of weight change of the animals: 4.22 ± 1.23 %
  Average weight of the animals: 20.72 ± 0.46 g
[2]; Day 23
  Average rate of weight change of the animals: 3.66 ± 1.05 %
  Average weight of the animals: 20.60 ± 0.40 g
[2]; Day 25
  Average rate of weight change of the animals: 5.07 ± 1.44%
  Average weight of the animals: 20.88 ± 0.48 g
[2]; Day 28
  Average rate of weight change of the animals: 1.57 ± 1.50%
  Average weight of the animals: 20.18 ± 0.44 g
[2]; Day 30
  Average rate of weight change of the animals: 2.28 ± 1.75%
  Average weight of the animals: 20.33 ± 0.55 g
[2]; single IP injection, D2 400 mg/kg, judged from body weight versus control
  Toxicity in tumor-bearing mice (in words): no toxicity
